Results reported in patent US10227331B2 (priority 2015, dated 2019).
Where two headings read alike, the source gives them in different places.

Assays:
[1] = test system: Serratia marcescens expressing IMP-1 (CL5741); assay type: cell-based; conditions: with imipenem 1 μg/ml, 95% inhibition of bacterial growth; for Serratia marcescens MITC95: IMP-1 (CL5741)
How it was run: (§1)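 Restoration of imipenem susceptibility (1 μg/ml imipenem) was judged by absorbance after 22–24 h at 35° C. Test compound was added to bacteria suspended 1:100 in 1.1× CAMHB from overnight blood-agar cultures.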

[2] = test system: Escherichia coli expressing NDM-1 (CLB30005, CLB30016); assay type: cell-based; conditions: with imipenem 1 μg/ml, 95% inhibition of bacterial growth; for Escherichia coli MITC95: NDM-1 (CLB30016)
How it was run: as §1

[3] = test system: Klebsiella pneumoniae expressing VIM-1 (IHMA599644); assay type: cell-based; conditions: with imipenem 1 μg/ml, 95% inhibition of bacterial growth; for Klebsiella pneumoniae MITC95: VIM-1 (IHMA599644)
How it was run: as §1

VIM-1 = VIM-1 (Pseudomonas aeruginosa (strain ATCC 15692 / DSM 22644 / CIP 104116 / JCM 14847 / LMG 12228 / 1C / PRS 101 / PAO1), UniProt A0A0F7KYQ8); test: biochemical; conditions: CCF2-FA substrate, 2 hours at 25° C
How it was run: (§2)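 Enzyme activity was measured by fluorescence using CCF2-FA, a cephalosporin-linked 7-hydroxycoumarin/fluorescein substrate, with inhibitor, metallo-β-lactamase and substrate incubated together for 2 hours at 25° C. IC50 came from a 4-parameter fit of inhibition versus log inhibitor concentration.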

[4] = test system: P. aeruginosa expressing IMP-1, efflux− (MB9799); test: Efflux: concentration of MBL inhibitor which restores susceptibility to imipenem; assay type: cell-based, Pseudomonas aeruginosa; conditions: imipenem at 2 μg/mL, in the presence of a class A, C, D serine β-lactamase inhibitor closely related to relebactam
From the text: (§3) The strain background is Pseudomonas aeruginosa PAO1.

[5] = test system: P. aeruginosa expressing IMP-1, efflux+ (MB9798); assay type: cell-based, Pseudomonas aeruginosa; conditions: for P. aeruginosa expressing IMP-1, efflux+ (MB9798) MITC95: imipenem at 2 μg/mL, in the presence of a class A, C, D serine β-lactamase inhibitor closely related to relebactam; for Efflux ratio: ratio MITC95 PA_9798/MITC95 PA_9799
From the text: as §3

NDM-1 = NDM-1 (Klebsiella pneumoniae, UniProt C7C422); test: biochemical; assay type: biochemical
NDM-1, sequence (C7C422 whole entry, looked up, species assumed): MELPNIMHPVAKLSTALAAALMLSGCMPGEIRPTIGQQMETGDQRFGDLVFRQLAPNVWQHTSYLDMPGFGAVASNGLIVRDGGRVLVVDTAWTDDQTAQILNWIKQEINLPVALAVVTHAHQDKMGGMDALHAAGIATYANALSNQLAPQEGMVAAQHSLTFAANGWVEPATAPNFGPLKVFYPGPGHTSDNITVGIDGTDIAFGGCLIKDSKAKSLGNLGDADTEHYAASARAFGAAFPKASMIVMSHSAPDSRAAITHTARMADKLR
How it was run: as §2

IMP-1 = IMP-1 (Serratia marcescens, UniProt P52699); test: biochemical; assay type: biochemical; conditions: CCF2-FA substrate, 2 hours at 25° C; read-out: IMP-1 IC50
IMP-1, sequence (P52699 whole entry, looked up, species assumed): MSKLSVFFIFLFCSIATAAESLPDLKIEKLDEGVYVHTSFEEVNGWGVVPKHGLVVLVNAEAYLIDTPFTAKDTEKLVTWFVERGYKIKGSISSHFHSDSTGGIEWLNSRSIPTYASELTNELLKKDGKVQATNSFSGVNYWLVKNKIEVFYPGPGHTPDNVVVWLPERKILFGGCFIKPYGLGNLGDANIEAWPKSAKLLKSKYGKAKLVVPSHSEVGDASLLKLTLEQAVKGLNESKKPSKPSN
How it was run: as §2

[6] = CCF2-FA substrate, 2 hours at 25° C, read-out: NDM-1 IC50

Row | Compound | Serratia marcescens expressing IMP-1 (CL5741) MITC95 [1] [µM] | Escherichia coli expressing NDM-1 (CLB30016) MITC95 [2] [µM] | Klebsiella pneumoniae expressing VIM-1 (IHMA599644) MITC95 [3] [µM] | IC50 (VIM-1) [pM] | P. aeruginosa expressing IMP-1, efflux− (MB9799) MITC95 [4] [µM] | P. aeruginosa expressing IMP-1, efflux+ (MB9798) MITC95 [5] [µM] | Efflux ratio [5] | IC50 (NDM-1; [6]) [pM] | IC50 (IMP-1) [pM] | Serratia marcescens MITC95 [1] [µM] | Escherichia coli MITC95 [2] [µM] | Klebsiella pneumoniae MITC95 [3] [µM] | IC50 (NDM-1) [pM]
1 | NS(=O)(=O)c1c([S+]([O-])C2CNC2)ccc(-c2cnc3ccccn23)c1-c1nn[nH]n1 (stereo not drawn) [Example 8, 6-(azetidin-3-ylsulfinyl)-3-(imidazo[1,2-a]pyridin-3-yl)-2-(2H-tetrazol-5-yl)benzenesulfonamide] | 12.5 | 3.125 | 12.5 | 6920 | 6.25 | 50 | 8.00 | 2620 | 37700 | – | – | – | –
2 | Nc1c(-c2ccc(S(=O)(=O)C3CNC3)c(S(N)(=O)=O)c2-c2nn[nH]n2)cccc1S(N)(=O)=O [Example 287, 2′-amino-4-(azetidin-3-ylsulfonyl)-2-(2H-tetrazol-5-yl)biphenyl-3,3′-disulfonamide] | – | – | – | 607 | 3.125 | 6.25 | 2.00 | 386 | 2920 | 3.125 | 3.125 | 3.125 | –
3 | NCCS(=O)(=O)c1ccc(-c2cccc3[nH]c([C@H](N)CNC(=O)C(F)(F)F)nc23)c(-c2nn[nH]n2)c1S(N)(=O)=O [Example 328, (R)—N-(2-Amino-2-(4-(4-((2-aminoethyl)sulfonyl)-3-sulfamoyl-2-(2H-tetrazol-5-yl)phenyl)-1H-benzo[d]imidazol-2-yl)ethyl)-2,2,2-trifluoroacetamide] | – | – | – | 474 | 1.563 | 3.125 | 2.00 | 1300 | 3420 | 3.125 | 1.563 | 3.125 | –
4 | CS(=O)(=O)c1ccc(-c2cccc3nc(N)[nH]c23)c(-c2nn[nH]n2)c1S(N)(=O)=O [Example 240, 3-(2-Amino-1H-benzo[d]imidazol-7-yl)-6-(methylsulfonyl)-2-(2H-tetrazol-5-yl) benzenesulfonamide] | 12.5 | 3.125 | 25 | 2600 | 12.5 | 50 | 4.00 | 4770 | 7460 | – | – | – | –
5 | NS(=O)(=O)c1c(S(=O)(=O)C2CNC2)ccc(-c2ccc3ncnn3c2)c1-c1nnn[nH]1.O=C(O)C(F)(F)F [Example 104, 3-((4-([1,2,4]triazolo[1,5-a]pyridin-6-yl)-2-sulfamoyl-3-(1H-tetrazol-5-yl)phenyl)sulfonyl)azetidin-1-ium 2,2,2-trifluoroacetate] | 6.25 | 3.125 | 3.125 | 699 | 1.563 | 12.5 | 8.00 | 2090 | 3530 | – | – | – | –
6 | NS(=O)(=O)c1c(S(=O)(=O)C2CNC2)ccc(-c2cccc3[nH]c(C(=O)NCC(=O)O)nc23)c1-c1nn[nH]n1 [Example 257, (4-(4-(azetidin-3-yl sulfonyl)-3-sulfamoyl-2-(2H-tetrazol-5-yl)phenyl)-1H-benzo[d]imidazole-2-carbonyl)glycine] | – | – | – | 428 | 12.5 | 25 | 2.00 | 123 | 1200 | 25 | 25 | 50 | –
7 | CCCn1c(N)nc2c(-c3ccc(S(=O)(=O)C4CNC4)c(S(N)(=O)=O)c3-c3nn[nH]n3)cccc21 [Example 289, 3-(2-amino-1-propyl-1H-benzo[d]imidazol-4-yl)-6-(azetidin-3-ylsulfonyl)-2-(2H-tetrazol-5-yl)benzenesulfonamide] | – | – | – | 407 | 1.563 | 12.5 | 8.00 | 120 | 299 | 1.563 | 0.3906 | 3.125 | –
8 | Nc1nc2c(-c3ccc(S(=O)(=O)c4ccccc4)c(S(N)(=O)=O)c3-c3nnn[nH]3)cccc2s1 [Example 232, 3-(2-aminobenzo[d]thiazol-4-yl)-6-(phenylsulfonyl)-2-(1H-tetrazol-5-yl)benzenesulfonamide] | 3.125 | 6.25 | 12.5 | 539 | 1.563 | 12.5 | 8.00 | 583 | 586 | – | – | – | –
9 | Cn1ncc2cc(-c3ccc(S(=O)(=O)CCN)c(S(N)(=O)=O)c3-c3nnn[nH]3)ccc21.O=C(O)C(F)(F)F [Example 160, 2-((4-(1-methyl-1H-indazol-5-yl)-2-sulfamoyl-3-(1H-tetrazol-5-yl)phenyl)sulfonyl)ethanaminium 2,2,2-trifluoroacetate] | 3.125 | 1.563 | 6.25 | 375 | 1.563 | 12.5 | 8.00 | 1020 | 568 | – | – | – | –
10 | NCCS(=O)(=O)c1ccc(-c2cccc3[nH]c(CC(N)C(=O)O)nc23)c(-c2nn[nH]n2)c1S(N)(=O)=O (stereo not drawn) [Example 330, 2-amino-3-(4-(4-((2-aminoethyl)sulfonyl)-3-sulfamoyl-2-(2H-tetrazol-5-yl)phenyl)-1H-benzo[d]imidazol-2-yl)propanoic acid] | – | – | – | 639 | 3.125 | 6.25 | 2.00 | 675 | 3610 | 1.563 | 3.125 | 6.25 | –
11 | NC[C@H](O)CS(=O)(=O)c1ccc(-c2cccc(-c3c[nH]c(N)n3)c2)c(-c2nn[nH]n2)c1S(N)(=O)=O [Example 366, (S)-3'-(2-amino-1H-imidazol-4-yl)-4-((3-amino-2-hydroxypropyl)sulfonyl)-2-(2H-tetrazol-5-yl)-[1,1'-biphenyl]-3-sulfonamide] | – | – | – | 1170 | 1.563 | 3.125 | 2.00 | 623 | 1810 | 1.563 | 0.7813 | 1.563 | –
12 | Cn1c(N)nc2c(-c3ccc(S(=O)(=O)C[C@@H](O)CN)c(S(N)(=O)=O)c3-c3nn[nH]n3)cccc21 [Example 363, (S)-3-(2-amino-1-methyl-1H-benzo[d]imidazol-4-yl)-6-((3-amino-2-hydroxypropyl)sulfonyl)-2-(2H-tetrazol-5-yl) benzenesulfonamide] | – | – | – | 356 | 0.7813 | 0.7813 | 1.00 | 275 | 425 | 0.7813 | 0.3906 | 1.563 | –
13 | NCCS(=O)(=O)c1ccc(-c2cccc3[nH]c([C@H](N)CN)nc23)c(-c2nn[nH]n2)c1S(N)(=O)=O [Example 327, (R)-6-((2-Aminoethyl)sulfonyl)-3-(2-(1,2-diaminoethyl)-1H-benzo[d]imidazol-4-yl)-2-(2H-tetrazol-5-yl)benzenesulfonamide] | – | – | – | 455 | 1.563 | 3.125 | 2.00 | – | 2230 | 3.125 | 1.563 | 3.125 | 1020
